Experimental data as given in US20240082228A1, “SARS-COV-2 THERAPEUTICS” (priority 2021, published 2024).
Several values for one entry are separate records, joined by “and”; a condition that tells them apart may be missing. Identical values can stand only once. Like-named read-outs stand apart in the source and are kept apart here.

What was measured:
SARS-CoV-2 = test: microbe, parasite or virus in culture; assay type: cell-based; conditions: for % Infection (1 uM) / % Infection (5 uM): single replicate of triplicate; for Normalized Infection (1 uM) / log2FC Infection (1 uM) / Normalized Infection (5 uM) / log2FC Infection (5 uM) / activity at 1 µM / activity at 5 µM: single replicate, relative to negative control DMSO; for activity at 1 µM: Severe acute respiratory syndrome coronavirus 2, 1 uM, read-out: Normalized Infection (1 uM); for activity at 5 µM: Severe acute respiratory syndrome coronavirus 2, 5 uM, read-out: Normalized Infection (5 uM)
[1] = for Average Cell Number (1 uM) / Cell Number (1 uM) / Normalized Cell Number (1 uM): compound at 1 uM; for Average Cell Number (1 uM) / Average Cell Number (5 uM): average of normalized cell number, n=3, relative to DMSO; for Cell Number (1 uM) / Normalized Cell Number (1 uM) / Cell Number (5 uM) / Normalized Cell Number (5 uM): single replicate; for Cell Number (1 uM) / Cell Number (5 uM): raw cell count; for Normalized Cell Number (1 uM) / Normalized Cell Number (5 uM): relative to negative control DMSO; for Average Cell Number (5 uM) / Cell Number (5 uM) / Normalized Cell Number (5 uM): compound at 5 uM
[2] = 1 uM, average log2FC infection (n=3) relative to DMSO
[3] = 5 uM, average log2FC infection (n=3) relative to DMSO

Row | Structure (SMILES) | Average Infection (1 uM) (SARS-CoV-2) | Average Infection (5 uM) (SARS-CoV-2) | HIT (2 Std, 1 uM) (SARS-CoV-2; 1 uM) | HIT (SARS-CoV-2; overall, 1 or 5 uM) | Toxic (1 uM) [1] | Toxic (5 uM) [1] | Average Cell Number (1 uM) [1] | Cell Number (1 uM) [1] | Normalized Cell Number (1 uM) [1] | Average Cell Number (5 uM) [1] | Cell Number (5 uM) [1] | Normalized Cell Number (5 uM) [1] | Average Infection (1 uM) (SARS-CoV-2; [2]) | Average Infection (5 uM) (SARS-CoV-2; [3]) | activity at 1 µM (SARS-CoV-2) | activity at 5 µM (SARS-CoV-2) | other results
1 | O=C(c1ccc(F)cc1)N1CCC[C@H](c2nc(-c3ccc(F)cc3)no2)C1 [ADX-47273, adx-47273] | −0.4315 | −0.3579 | HIT | Yes | – | – | – | – | – | – | – | – | – | – | – | – | % Infection (1 uM) (SARS-CoV-2; 1 uM): 21.77% and 18.58% and 18.27%; Normalized Infection (1 uM) (SARS-CoV-2; 1 uM): 0.8288 and 0.7074 and 0.6954; log2FC Infection (1 uM) (SARS-CoV-2; 1 uM): −0.271 and −0.4995 and −0.524; % Infection (5 uM) (SARS-CoV-2; 5 uM): 14.06% and 10.49% and 11.77%; Normalized Infection (5 uM) (SARS-CoV-2; 5 uM): 0.9128 and 0.681 and 0.7644; log2FC Infection (5 uM) (SARS-CoV-2; 5 uM): −0.1316 and −0.5544 and −0.3876
2 | CC1(C)S[C@@H]2[C@H](NC(=O)[C@H](N)c3ccccc3)C(=O)N2[C@H]1C(=O)O [Ampicillin, ampicillin] | – | – | HIT | Yes | 0 (non-toxic (Normalized Cell number>0.65) | 0 (non-toxic (Normalized Cell number>0.65) | 0.694 | 3959 and 4296 and 3945 | 0.6756 and 0.7331 and 0.6732 | 0.9658 | 5481 and 5912 and 5777 | 0.9249 and 0.9976 and 0.9748 | −0.9564 | −0.0334 | 48.2% | 102% | –
3 | Nc1cc(C(F)(F)F)c(-c2nc(N3CCOCC3)nc(N3CCOCC3)n2)cn1 [Bimiralisib, bimiralisib] | – | – | HIT | Yes | 0 (non-toxic (Normalized Cell number>0.65) | – | 0.6927 | 3839 and 4405 and 3934 | 0.6551 and 0.7517 and 0.6713 | 0.4637 | 2795 and 2791 and 2658 | 0.4716 and 0.471 and 0.4485 | −1.45 | −4.123 | – | 5.11% | HIT (2 Stdv, 5 uM) (SARS-CoV-2; 5 uM): HIT
4 | c1cc(OCCN2CCCCC2)cc(-c2n[nH]c3ccc(-c4nc[nH]n4)cc23)c1 [CC-401, cc-401] | – | – | – | Yes | 0 (non-toxic (Normalized Cell number>0.65) | 0 (non-toxic (Normalized Cell number>0.65) | 0.8485 | 4691 and 5161 and 5065 | 0.8005 and 0.8807 and 0.8643 | 0.8935 | 4993 and 5513 and 5380 | 0.8425 and 0.9303 and 0.9078 | −0.3224 | −0.828 | 86.2% | 58.4% | HIT (2 Stdv, 5 uM) (SARS-CoV-2; 5 uM): HIT
5 | CS(=O)(=O)N1CCc2c(-c3cnc(N)nc3)nc(N3CCOCC3)nc21 [CH5132799, ch5132799] | – | – | HIT | Yes | 0 (non-toxic (Normalized Cell number>0.65) | – | 0.6597 | 4526 and 3593 and 3479 | 0.7724 and 0.6131 and 0.5937 | 0.5239 | 3141 and 3289 and 2884 | 0.53 and 0.555 and 0.4867 | −1.059 | −3.565 | 42.1% | 8.27% | HIT (2 Stdv, 5 uM) (SARS-CoV-2; 5 uM): HIT
6 | CC(C)(C[C@H]1CN(S(=O)(=O)c2cccc(C(F)(F)F)c2)c2cc(-c3cc(F)cc(OC(F)F)c3)ccc2O1)C(=O)O [Cintirorgon, cintirorgon] | – | – | HIT | Yes | 0 (non-toxic (Normalized Cell number>0.65) | 0 (non-toxic (Normalized Cell number>0.65) | 0.7476 | 4247 and 4539 and 4357 | 0.7247 and 0.7746 and 0.7435 | 0.9874 | 5894 and 6058 and 5603 | 0.9946 and 1.022 and 0.9455 | −0.8423 | −0.109 | 53.8% | – | –
7 | C[N+]12CCC(CC1)C(OC(=O)C(O)(c1ccccc1)c1ccccc1)C2 (stereo not drawn) [Clidinium, clidinium] | −0.7651 | −0.1069 | HIT | Yes | 0 (non-toxic (Normalized Cell number>0.65) | 0 (non-toxic (Normalized Cell number>0.65) | 0.6841 | 3871 and 4256 and 3900 | 0.6606 and 0.7263 and 0.6655 | 0.9985 | 5211 and 6271 and 6270 | 0.8793 and 1.058 (2×) | – | – | – | – | –
8 | CC(C)C[C@@H](NC(=O)[C@H](Cc1ccccc1)NC(=O)CNC(=O)[C@@H](C)NC(=O)[C@@H](N)Cc1ccc(O)cc1)C(=O)O [DADLE, L-Tyrosyl-D-alanylglycyl-L-phenylalanyl-D-leucine] | −0.6223 | −0.2501 | HIT | Yes | 0 (non-toxic (Normalized Cell number>0.65) | 0 (non-toxic (Normalized Cell number>0.65) | 0.7534 | 4511 and 4466 and 4268 | 0.7698 and 0.7621 and 0.7283 | 0.9869 | 5991 and 5664 and 5891 | 1.011 and 0.9558 and 0.9941 | – | – | – | – | % Infection (1 uM) (SARS-CoV-2; 1 uM): 17.22% and 16.52% and 17.46%; Normalized Infection (1 uM) (SARS-CoV-2; 1 uM): 0.6557 and 0.6291 and 0.6645; log2FC Infection (1 uM) (SARS-CoV-2; 1 uM): −0.6088 and −0.6686 and −0.5896; % Infection (5 uM) (SARS-CoV-2; 5 uM): 13.22% and 10.81% and 15.19%; Normalized Infection (5 uM) (SARS-CoV-2; 5 uM): 0.8586 and 0.7017 and 0.9867; log2FC Infection (5 uM) (SARS-CoV-2; 5 uM): −0.22 and −0.511 and −0.01933
9 | O=C(O)CNC(=O)C1C(=O)N(C2CCCCC2)C(=O)N(C2CCCCC2)C1=O [Daprodustat, daprodustat] | −0.8526 | −0.09093 | HIT | Yes | 0 (non-toxic (Normalized Cell number>0.65) | 0 (non-toxic (Normalized Cell number>0.65) | 0.7431 | 4292 and 4412 and 4360 | 0.7324 and 0.7529 and 0.744 | 0.9695 | 5964 and 5671 and 5601 | 1.006 and 0.9569 and 0.9451 | – | – | 57.7% | – | –
10 | CCOC(=O)N1CCC(=C2c3ccc(Cl)cc3CCc3cccnc32)CC1 [Loratadine, loratadine] | – | – | – | – | – | – | – | – | – | – | – | – | −0.3263 | −1.089 | 81.8% | 54% | HIT (SARS-CoV-2): Yes; HIT (2 Stdv, 5 uM) (SARS-CoV-2): HIT
11 | Cc1ccccc1-n1c(Cn2nc(-c3cccc(O)c3)c3c(N)ncnc32)nc2cccc(C)c2c1=O [PIK-294, pik-294] | – | – | – | – | 0 (non-toxic (Normalized Cell number>0.65) | 0 (non-toxic (Normalized Cell number>0.65) | 0.7115 | 4346 and 3954 and 4208 | 0.7416 and 0.6747 and 0.7181 | 0.9038 | 5244 and 5589 and 5236 | 0.8849 and 0.9431 and 0.8835 | – | – | – | – | –
